Two compounds from ChEMBL document CHEMBL3286349 (Bioorg Med Chem Lett, 2014) can be followed below.

pEC50, pKd: −log10 of the molar value. Activity calls are given as the source filed them. The calls are words filed in the database; no cut-off is given here. Residues, ends and D or L forms follow the SMILES beside them.

The target in assay [1] is T1, Peroxisome proliferator-activated receptor alpha (Rattus norvegicus) (UniProt P37230).
T1 sequence (whole entry): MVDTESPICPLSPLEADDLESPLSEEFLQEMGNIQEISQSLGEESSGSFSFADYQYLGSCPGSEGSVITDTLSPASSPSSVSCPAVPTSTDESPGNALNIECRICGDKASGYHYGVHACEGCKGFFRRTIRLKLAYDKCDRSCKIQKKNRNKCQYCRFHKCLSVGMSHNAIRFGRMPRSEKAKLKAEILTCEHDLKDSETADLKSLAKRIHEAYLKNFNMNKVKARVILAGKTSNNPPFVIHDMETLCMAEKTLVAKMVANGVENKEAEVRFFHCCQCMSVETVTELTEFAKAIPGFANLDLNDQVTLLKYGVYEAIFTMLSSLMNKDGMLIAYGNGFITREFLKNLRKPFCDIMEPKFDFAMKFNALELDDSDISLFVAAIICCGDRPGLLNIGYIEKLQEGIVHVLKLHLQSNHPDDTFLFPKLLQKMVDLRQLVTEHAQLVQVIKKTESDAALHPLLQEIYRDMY
Nature of the assay: Agonist activity at PPARalpha in lipid loaded rat HII4E cells assessed as induction of fatty acid uptake at 1 uM after 24 hrs by flow cytometry analysis relative to control. It is filed as cell-based.

Assay [2] has as its target T2, Peroxisome proliferator-activated receptor alpha (Homo sapiens) (UniProt Q07869).
T2 sequence (whole entry): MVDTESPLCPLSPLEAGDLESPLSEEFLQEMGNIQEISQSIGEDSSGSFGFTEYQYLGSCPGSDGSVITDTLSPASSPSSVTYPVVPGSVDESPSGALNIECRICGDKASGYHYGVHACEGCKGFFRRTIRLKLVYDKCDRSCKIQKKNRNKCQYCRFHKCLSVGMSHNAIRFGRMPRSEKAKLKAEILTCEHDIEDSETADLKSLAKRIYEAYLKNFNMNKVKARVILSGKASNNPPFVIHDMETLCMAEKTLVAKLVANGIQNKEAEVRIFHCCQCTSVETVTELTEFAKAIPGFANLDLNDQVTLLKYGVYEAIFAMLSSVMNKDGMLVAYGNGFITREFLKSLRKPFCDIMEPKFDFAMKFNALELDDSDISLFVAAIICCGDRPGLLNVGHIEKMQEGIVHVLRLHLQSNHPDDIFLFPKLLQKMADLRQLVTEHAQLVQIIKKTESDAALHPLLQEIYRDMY
Nature of the assay: Agonist activity at PPARalpha (unknown origin) expressed in CHOK1 cells assessed as induction of transactivation activity at 100 uM after 24 hrs by luciferase reporter gene assay relative to control. As to conditions: CHO-K1. It is filed as cell-based. (Reporter assays use an easily measured gene product as a stand-in for the process of interest.)

Assay [3] addresses T1, Peroxisome proliferator-activated receptor alpha (Rattus norvegicus). Kind of assay: Agonist activity at PPARalpha in lipid loaded rat HII4E cells assessed as reduction of intracellular cholesterol level after 24 hrs. It is filed as cell-based.
Assay [4] shares this target. Kind of assay: Agonist activity at PPARalpha in lipid loaded rat HII4E cells assessed as increase of acyl-CoA synthetase gene expression at 500 uM after 24 hrs by qPCR analysis relative to control. It is filed as cell-based. (In general: In qPCR the cycle at which signal appears reflects the starting amount.)
The target of assay [5] is T2, Peroxisome proliferator-activated receptor alpha (Homo sapiens). Kind of assay: Agonist activity at PPARalpha (unknown origin) expressed in CHOK1 cells assessed as induction of transactivation activity at 500 uM after 24 hrs by luciferase reporter gene assay relative to control. It is filed as cell-based. Conditions: CHO-K1.
The target of assay [6] is T3, Peroxisome proliferator-activated receptor alpha (Homo sapiens, UniProt Q07869).
T3 sequence (Q07869 whole entry): T2 sequence (whole entry)
Nature of the assay: Binding affinity to PPARalpha LBD (unknown origin) by surface plasmon resonance assay. Background: Surface plasmon resonance follows binding to a sensor surface in real time, without labels.

The target of assay [7] is T1, Peroxisome proliferator-activated receptor alpha (Rattus norvegicus). Nature of the assay: Agonist activity at PPARalpha in lipid loaded rat HII4E cells assessed as reduction of intracellular triglyceride level at 100 uM after 24 hrs relative to control. It is filed as cell-based. More on the design: scale not given: the % may be the effect or the level left.
Assay [8] has the same target. Kind of assay: Agonist activity at PPARalpha in lipid loaded rat HII4E cells assessed as reduction of intracellular cholesterol level at 500 uM after 24 hrs relative to control. It is filed as cell-based. Set-up: scale not given: the % may be the effect or the level left.
The target is the same in assay [9]. Nature of the assay: Agonist activity at PPARalpha in lipid loaded rat HII4E cells assessed as induction of fatty acid uptake at 100 to 500 uM after 24 hrs by flow cytometry analysis relative to control. It is filed as cell-based.
The target is the same in assay [10]. Nature of the assay: Agonist activity at PPARalpha in lipid loaded rat HII4E cells assessed as increase of CPT1 gene expression at 500 uM after 24 hrs by qPCR analysis relative to control. It is filed as cell-based.
The nature of assay [11]: Reduction of intracellular cholesterol level in lipid loaded rat HII4E cells expressing PPARgamma siRNA after 24 hrs. It is filed as functional, cell-based.
In assay [12] the target is T1, Peroxisome proliferator-activated receptor alpha (Rattus norvegicus). Nature of the assay: Agonist activity at PPARalpha in lipid loaded rat HII4E cells assessed as induction of transcriptional activity at 100 uM after 24 hrs by qPCR analysis relative to control. It is filed as cell-based.
Assay [13] has as its target T3, Peroxisome proliferator-activated receptor alpha. Kind of assay: Agonist activity at PPARalpha LBD (unknown origin) assessed as induction of PGC1alpha co-activator activity by TR-FRET analysis.
Assay [14] addresses T1, Peroxisome proliferator-activated receptor alpha (Rattus norvegicus). Kind of assay: Agonist activity at PPARalpha in lipid loaded rat HII4E cells assessed as induction of transcriptional activity at 500 uM after 24 hrs by qPCR analysis relative to control. It is filed as cell-based.
Assay [15] in a line: Reduction of intracellular triglyceride level in lipid loaded rat HII4E cells expressing PPARalpha siRNA at 10 to 500 uM after 24 hrs. It is filed as functional, cell-based.
Assay [16] addresses T1, Peroxisome proliferator-activated receptor alpha (Rattus norvegicus). Kind of assay: Agonist activity at PPARalpha in lipid loaded rat HII4E cells assessed as reduction of intracellular triglyceride level at 500 uM after 24 hrs relative to control. It is filed as cell-based. More on the design: scale not given: the % may be the effect or the level left.
The target is the same in assay [17]. Kind of assay: Agonist activity at PPARalpha in lipid loaded rat HII4E cells assessed as increase of FATP4 gene expression at 500 uM after 24 hrs by qPCR analysis relative to control. It is filed as cell-based.
A short description of assay [18]: Reduction of intracellular triglyceride level in lipid loaded rat HII4E cells expressing PPARgamma siRNA after 24 hrs. It is filed as functional, cell-based.
The nature of assay [19]: Reduction of intracellular cholesterol level in lipid loaded rat HII4E cells expressing PPARalpha siRNA at 10 to 500 uM after 24 hrs. It is filed as functional, cell-based.
The target in assay [20] is T1, Peroxisome proliferator-activated receptor alpha (Rattus norvegicus). Nature of the assay: Agonist activity at PPARalpha in lipid loaded rat HII4E cells assessed as increase of acyl-CoA synthetase gene expression at 100 uM after 24 hrs by qPCR analysis relative to control. It is filed as cell-based.
For assay [21] the target is unchanged. Kind of assay: Agonist activity at PPARalpha in lipid loaded rat HII4E cells assessed as reduction of intracellular cholesterol level at 100 uM after 24 hrs relative to control. It is filed as cell-based. More on the design: scale not given: the % may be the effect or the level left.
Assay [22] has the same target. Nature of the assay: Agonist activity at PPARalpha in lipid loaded rat HII4E cells assessed as increase of FATP4 gene expression at 100 uM after 24 hrs by qPCR analysis relative to control. It is filed as cell-based.
Assay [23] shares this target. Nature of the assay: Agonist activity at PPARalpha in lipid loaded rat HII4E cells assessed as increase of ACOX gene expression at 500 uM after 24 hrs by qPCR analysis relative to control. It is filed as cell-based.

As for `CC(C)(Sc1ccc(CCN(CCCCC2CCCCC2)C(=O)NC2CCCCC2)cc1)C(=O)O`, in [1], the result was Active.
For orientation: pKd means the Kd on a negative log10 scale, so that one unit is a factor of ten. In general, pEC50 refers to the negative decadic logarithm of the EC50, by convention in mol/L. As for `N[C@@H](Cc1c[nH]c2ccccc12)C(=O)N[C@@H](CCC(=O)O)C(=O)O` (H-Trp-Glu-OH), the Activity was 53% in assay [2]; “Dose-dependent effect” in assay [3]; 62% in assay [5]; 14% in assay [7]; 21% in assay [8]; “Dose-dependent effect” in assay [11]. Further, the Activity was 16% in [16], “Dose-dependent effect” in [18] and 14% in assay [21]. Besides, the fold change (FC) was 1.5 in assay [4]; 1.2 in assay [9]; 1.6 in assay [10]; 1.8 in [12]; 1.9 in assay [14]; 1.7 in assay [17]. The figures for the fold change (FC) in [20], in assay [22] and in [23] were 1.4, 1.6 and 1.4, respectively. Further, the pKd in [6] is 3.92. For the same compound, the pEC50 in assay [13] was 4.08. For the same compound, the result in [15] and in [19] was inactive.
